In patent publication US20210238225A1, “PEPTIDOMIMETIC INHIBITORS OF THE PEPTIDYL-PROLYL CIS/TRANS ISOMERASE (PIN1)” (DANA-FARBER CANCER INSTITUTE, INC., priority 2018, published 2021):
pKi: −log10 of the molar value. Entries after “also recorded” stand apart in the source; their conditions may differ. Read-outs that look alike come from different tables or passages of the source. Non-standard residues stand in square brackets, D forms with d. Residues, ends and D or L forms follow the SMILES beside them. *: point of attachment. Biotinyl(3aR,4R,6aS) = O=C1N[C@@H]2[C@@H](CS[C@@H]2CCCCC(=O)*)N1; Phe(4-F) = N[C@@H](Cc1ccc(F)cc1)C(=O)O; X2 = C[C@H]1NC(=O)N[C@H]1CCCCCC(=O)*; NH(4-Me-benzyl) = Cc1ccc(CN*)cc1; NMeF = CN[C@@H](Cc1ccccc1)C(=O)O; hPhe = N[C@@H](CCc1ccccc1)C(=O)O; Cit = NC(=O)NCCC[C@H](N)C(=O)O; Pip = O=C(O)[C@@H]1CCCCN1; Piperidide = C1CCN(*)CC1; Fluoroacetyl = O=C(CF)*; X3 = C=CS(=O)(=O)*; ClAc = O=C(CCl)*; X1 = O=C(C1CO1)*

What was measured:
Pin1 (GST-Pin1) = Pin1 (GST-Pin1) (Homo sapiens, UniProt Q13526); experiment: Fluorescence polarization (FP) assay, binding to Pin1; settings: for Ki: competition with fluorescein-labeled peptide probe, 12 hours pre-incubation at 4° C., Kenakin Ki equation
Pin1 = Pin1 (Homo sapiens, UniProt Q13526); experiment: Lysate target engagement (pull down with biotinylated probes; competition assay); format: binding; set-up: endogenous in cells; host or cells: MDA-MB-231; settings: for Lysate Target Engagement?: TNBC-MDA-MB-231 lysate, biotin/dtb probes: pull down, others: competition, concentration under E5; for Lysate Target Engagement? concentration stated for the engagement or pull down: read with the E4 line of the same compound (complete, partial, probe pull down); for pull down of Pin1 from lysate (FIG. 5A): 1 μM
Procedure: (§1) TNBC-MDA-MB-231 cells were lysed in lysis buffer (50 mM Hepes pH 7.5, 150 mM NaCl, 1 mM ethylenediaminetetraacetic acid (EDTA), 10% v/v glycerol, 0.5% v/v NP-40, protease inhibitors (Roche)). After clarifying by centrifugation (14,000 rpm for 15 min at 4° C.), lysates were incubated with the indicated concentrations of candidate compound for 1 hour at 4° C. (500 μg of protein per sample, as determined by BCA). Lysates were then incubated with streptavidin agarose resin (30 μL of 1:1 beads: lysis buffer slurry) (Thermo Scientific™, cat. #20349) for 2 hours at 4° C. Beads were washed 4 times with 500 μL of washing buffer (50 mM Hepes, pH 7.5, 10 mM NaCl, 1 mM EDTA, 10% glycerol), then pelleted by centrifugation and dried. The beads were then boiled at 95° C. for 5 minutes in 30 μL of 2× LDS+10% β-mercaptoethanol. Lysates were probed for specified proteins by western blotting using the Bolt system (Life Technologies™).
as §1, with “mM EDTA,” for “mM ethylenediaminetetraacetic acid (EDTA),”, “by centrifugation,” for “by centrifugation (14,000 rpm for 15 min at 4° C.),”, “were pre-incubated” for “were incubated”, “of” for “of candidate”, “compound 18 overnight” for “compound for 1 hour”, “BCA). The lysates were then incubated with 1 μM of compound 2c (desthiobiotin probe) for 1 hour at 4° C.” for “BCA).”

[1] = Ki quoted in figure legend, assay not named

Sequence of Pin1 (GST-Pin1) (Q13526 whole entry): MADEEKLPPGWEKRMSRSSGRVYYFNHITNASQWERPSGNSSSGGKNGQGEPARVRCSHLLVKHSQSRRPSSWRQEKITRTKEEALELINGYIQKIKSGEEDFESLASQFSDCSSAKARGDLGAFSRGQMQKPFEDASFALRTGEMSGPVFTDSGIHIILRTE
Sequence of Pin1 (Q13526 whole entry): as above

Structure (SMILES)	Ki (Pin1 (GST-Pin1); read-out: Ki, μM (FP Assay))	Lysate Target Engagement? (Pin1)	Lysate Target Engagement? concentration stated for the engagement or pull down (Pin1)	other results
COC(=O)CC[C@H](NC(=O)CCl)C(=O)N1CCCC[C@H]1C(=O)N[C@@H](Cc1c[nH]c2ccccc12)C(=O)N[C@@H](Cc1ccc(O)cc1)C(N)=O [Compound 2-22, Methyl (S)-5-((S)-2-(((S)-1-(((S)-1-Amino-3-(4-hydroxyphenyl)-1-oxopropan-2-yl)amino)-3-(1H-indol-3-yl)-1-oxopropan-2-yl)carbamoyl)piperidin-1-yl)-4-(2-chloroacetamido)-5-oxopentanoate] (ClAc-E(OMe)[Pip]WY-NH2)	0.154 µM	Yes-partial	at 10 μM	–
C[C@H](NC(=O)[C@H](C)NC(=O)[C@H](CCCNC(N)=O)NC(=O)[C@H](Cc1c[nH]c2ccccc12)NC(=O)[C@@H]1CCCCN1C(=O)[C@H](CCC(=O)O)NC(=O)CCl)C(=O)N[C@@H](CCCCNC(=O)CCCC[C@H]1SC[C@H]2NC(=O)N[C@H]21)C(N)=O [Compound 2-25, (S)-5-((S)-2-(((2S,5S,8S,11S)-14-Carbamoyl-1-(1H-indol-3-yl)-8,11-dimethyl-3,6,9,12,20-pentaoxo-24-((3aR,4R,6aS)-2-oxohexahydro-1H-thieno[3,4-d]imidazol-4-yl)-5-(3-ureidopropyl)-4,7,10,13,19-pentaazatetracosan-2-yl)carbamoyl)piperidin-1-yl)-4-(2-chloroacetamido)-5-oxopentanoic acid] (ClAc-E[Pip]W[Cit]AAK(Biotinyl(3aR,4R,6aS))-NH2)	–	Yes-(Biotin	at 1 μM	pKi (Pin1 (GST-Pin1); read-out: Ki quoted in figure legend, assay not named): 7.70; pull down of Pin1 from lysate (FIG. 5A) (Pin1; TNBC MDA-MB-231 lysate): able to pull down Pin1; also recorded: pulled down Pin1
C[C@H](NC(=O)[C@H](C)NC(=O)[C@H](CCCNC(N)=O)NC(=O)[C@H](Cc1c[nH]c2ccccc12)NC(=O)[C@@H]1CCCCN1C(=O)[C@@H](CCC(=O)O)NC(=O)CCl)C(=O)N[C@@H](CCCCNC(=O)CCCC[C@H]1SC[C@H]2NC(=O)N[C@H]21)C(N)=O [Compound 2-30, (R)-5-((S)-2-(((2S,5S,8S,11S)-14-Carbamoyl-1-(1H-indol-3-yl)-8,11-dimethyl-3,6,9,12,20-pentaoxo-24-((3aR,4R,6aS)-2-oxohexahydro-1H-thieno[3,4-d]imidazol-4-yl)-5-(3-ureidopropyl)-4,7,10,13,19-pentaazatetracosan-2-yl)carbamoyl)piperidin-1-yl)-4-(2-chloroacetamido)-5-oxopentanoic acid] (ClAc-[dE][Pip]W[Cit]AAK(Biotinyl(3aR,4R,6aS))-NH2)	1.6 µM	–	–	pull down of Pin1 from lysate (FIG. 5A) (Pin1; TNBC MDA-MB-231 lysate): unable to pull down Pin1; also recorded: did not
CN(C(=O)CCl)[C@@H](Cc1ccccc1)C(=O)N1CCCC[C@H]1C(=O)N[C@@H](Cc1c[nH]c2ccccc12)C(=O)N[C@@H](CCCNC(N)=O)C(=O)N[C@@H](CCCCNC(=O)CCCC[C@H]1SC[C@H]2NC(=O)N[C@H]21)C(N)=O [Compound 2-32, (S)—N—((S)-1-(((S)-1-(((S)-1-Amino-1-oxo-6-(5-((3aR,4R,6aS)-2-oxohexahydro-1H-thieno[3,4-d]imidazol-4-yl)pentanamido)hexan-2-yl)amino)-1-oxo-5-ureidopentan-2-yl)amino)-3-(1H-indol-3-yl)-1-oxopropan-2-yl)-1-(N-(2-chloroacetyl)-N-methyl-L-phenylalanyl)piperidine-2-carboxamide] (ClAc-[NMeF][Pip]W[Cit]K(Biotinyl(3aR,4R,6aS))-NH2)	–	Yes-(Biotin	at 0.5 μM	pKi (Pin1 (GST-Pin1); [1]): 7.74; Ki (Pin1 (GST-Pin1); Ki, μM (FP Assay)): 0.018 µM; pull down of Pin1 from lysate (FIG. 5B) (Pin1; TNBC MDA-MB-231 lysate, 500 nM and 1 μM): able to pull down Pin1; also recorded: pulled down Pin1
C[C@H]1NC(=O)N[C@H]1CCCCCC(=O)NCCCC[C@H](NC(=O)[C@H](CCCNC(N)=O)NC(=O)[C@H](Cc1c[nH]c2ccccc12)NC(=O)[C@@H]1CCCCN1C(=O)[C@H](Cc1ccccc1)N(C)C(=O)CCl)C(N)=O [Compound 2c, (S)—N—((S)-1-(((S)-1-(((S)-1-Amino-6-(6-((4S,5R)-5-methyl-2-oxoimidazolidin-4-yl)hexanamido)-1-oxohexan-2-yl)amino)-1-oxo-5-ureidopentan-2-yl)amino)-3-(1H-indol-3-yl)-1-oxopropan-2-yl)-1-(N-(2-chloroacetyl)-N-methyl-L-phenylalanyl)-piperidine-2-carboxamide] (ClAc-[NMeF][Pip]W[Cit]K(X2)-NH2)	–	Yes-(dtb	at 0.5 μM	pKi (Pin1 (GST-Pin1); [1]): 7.82
CN(C(=O)CCl)[C@@H](Cc1ccccc1)C(=O)N1CCCC[C@H]1C(=O)N[C@@H](Cc1c[nH]c2ccccc12)C(=O)N[C@@H](Cc1ccc(F)cc1)C(=O)N1CCCCC1 [Compound 11-43, (S)-1-(N-(2-Chloroacetyl)-N-methyl-L-phenylalanyl)-N—((S)-1-(((S)-3-(4-fluorophenyl)-1-oxo-1-(piperidin-1-yl)propan-2-yl)amino)-3-(1H-indol-3-yl)-1-oxopropan-2-yl)piperidine-2-carboxamide] (ClAc-[NMeF][Pip]W[Phe(4-F)]-Piperidide)	0.172 µM	–	–	–
CN(C(=O)CCl)[C@@H](Cc1ccccc1)C(=O)N1CCCC[C@H]1C(=O)N[C@@H](Cc1c[nH]c2ccccc12)C(=O)N[C@@H](CCc1ccccc1)C(=O)N1CCCCC1 [Compound 11-44, (S)—N—((S)-3-(1H-Indol-3-yl)-1-oxo-1-(((S)-1-oxo-4-phenyl-1-(piperidin-1-yl)butan-2-yl)amino)propan-2-yl)-1-(N-(2-chloroacetyl)-N-methyl-L-phenylalanyl)piperidine-2-carboxamide] (ClAc-[NMeF][Pip]W[hPhe]-Piperidide)	1.5 µM	–	–	–
CN(C(=O)CCl)[C@@H](Cc1ccccc1)C(=O)N1CCCC[C@H]1C(=O)N[C@@H](Cc1c[nH]c2ccccc12)C(=O)N1CCCCC1 [Compound 11-45, (S)—N—((S)-3-(1H-indol-3-yl)-1-oxo-1-(piperidin-1-yl)propan-2-yl)-1-(N-(2-chloroacetyl)-N-methyl-L-phenylalanyl)piperidine-2-carboxamide] (ClAc-[NMeF]-[Pip]-Trp-Piperidide)	> 1 µM	–	–	–
Cc1ccc(CNC(=O)[C@H](CCCNC(N)=O)NC(=O)[C@H](Cc2c[nH]c3ccccc23)NC(=O)[C@@H]2CCCCN2C(=O)[C@H](Cc2ccccc2)NCC#N)cc1 [Compound 12, (S)—N—((S)-3-(1H-indol-3-yl)-1-(((S)-1-((4-methylbenzyl)amino)-1-oxo-5-ureidopentan-2-yl)amino)-1-oxopropan-2-yl)-1-((cyanomethyl)-L-phenylalanyl)piperidine-2-carboxamide]	> 10 µM	–	–	–
Cc1ccc(CNC(=O)[C@H](CCCNC(N)=O)NC(=O)[C@H](Cc2c[nH]c3ccccc23)NC(=O)[C@@H]2CCCCN2C(=O)[C@H](Cc2ccccc2)NC(=O)C2CO2)cc1 (stereo partly drawn) [Compound 13, (2S)—N—((S)-3-(1H-Indol-3-yl)-1-(((S)-1-((4-methylbenzyl)amino)-1-oxo-5-ureidopentan-2-yl)amino)-1-oxopropan-2-yl)-1-((oxirane-2-carbonyl)-L-phenylalanyl)piperidine-2-carboxamide] (X1-F[Pip]W[Cit]-{NH(4-Me-benzyl)})	4.43 µM	–	–	–
C=CS(=O)(=O)N[C@@H](Cc1ccccc1)C(=O)N1CCCC[C@H]1C(=O)N[C@@H](Cc1c[nH]c2ccccc12)C(=O)N[C@@H](CCCNC(N)=O)C(=O)NCc1ccc(C)cc1 [Compound 14, (S)—N—((S)-3-(1H-indol-3-yl)-1-(((S)-1-((4-methylbenzyl)amino)-1-oxo-5-ureidopentan-2-yl)amino)-1-oxopropan-2-yl)-1-((vinylsulfonyl)-L-phenylalanyl)piperidine-2-carboxamide] (X3-F[Pip]W[Cit]-{NH(4-Me-benzyl)})	0.143 µM	–	–	–
Cc1ccc(CNC(=O)[C@H](CCCNC(N)=O)NC(=O)[C@H](Cc2c[nH]c3ccccc23)NC(=O)[C@@H]2CCCCN2C(=O)[C@H](Cc2ccccc2)NC(=O)CF)cc1 [Compound 15, (S)—N—((S)-3-(1H-Indol-3-yl)-1-(((S)-1-((4-methylbenzyl)amino)-1-oxo-5-ureidopentan-2-yl)amino)-1-oxopropan-2-yl)-1-((2-fluoroacetyl)-L-phenylalanyl)piperidine-2-carboxamide] (Fluoroacetyl-F[Pip]W[Cit]-{NH(4-Me-benzyl)})	–	–	–	Ki (Pin1 (GST-Pin1); Ki, μM (FP Assay)): > 10 µM
